Consider 25 molecules from ChEMBL document CHEMBL1140592, “Identification of novel, selective and potent Chk2 inhibitors” (Bioorg Med Chem Lett, 2007).

For this assay, the target named is Serine/threonine-protein kinase Chk2 (Homo sapiens, UniProt O96017). The assay is described as follows: Inhibition of Chk2 kinase.
Chain of Serine/threonine-protein kinase Chk2 (O96017 whole entry): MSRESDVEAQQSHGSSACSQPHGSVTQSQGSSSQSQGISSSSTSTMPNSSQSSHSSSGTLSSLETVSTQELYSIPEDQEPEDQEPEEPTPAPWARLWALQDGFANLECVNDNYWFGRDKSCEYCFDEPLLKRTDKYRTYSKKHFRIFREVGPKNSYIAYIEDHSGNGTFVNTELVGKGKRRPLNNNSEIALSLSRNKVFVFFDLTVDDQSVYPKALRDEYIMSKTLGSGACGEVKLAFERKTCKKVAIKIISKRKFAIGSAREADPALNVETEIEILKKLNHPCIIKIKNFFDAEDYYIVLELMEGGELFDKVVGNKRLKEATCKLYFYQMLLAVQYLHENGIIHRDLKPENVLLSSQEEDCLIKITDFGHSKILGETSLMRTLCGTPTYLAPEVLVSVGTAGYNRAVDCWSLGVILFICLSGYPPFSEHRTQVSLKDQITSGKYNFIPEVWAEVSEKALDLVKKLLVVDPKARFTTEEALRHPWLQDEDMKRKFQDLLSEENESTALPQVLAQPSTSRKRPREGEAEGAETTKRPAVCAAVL

Regarding `N=C(NCCCCO)c1c(O)nsc1Nc1ccc(Nc2ccccc2)cc1`, inhibition was half-maximal at 1200 nM (IC50).

Regarding `N=C(NCC1CCCCC1)c1c(O)nsc1Nc1ccc(C(=O)c2ccccc2)cc1`, half-maximal inhibition (IC50) was put at 5000 nM.

Consider `CC(C)NC(=N)c1c(O)nsc1Nc1ccc(Oc2ccccc2)cc1`, for which the IC50 – broadly, the concentration needed to halve the response being measured – was 2300 nM. This IC50 lies about 2.2-fold lower than the previous one.

As to `CC(C)NC(=N)c1c(O)nsc1Nc1ccc(C2CCCCC2)cc1`, the IC50 came to 19000 nM.

On to `CC(C)NC(=N)c1c(O)nsc1Nc1ccc(/N=N/c2ccccc2)cc1`, for which the IC50 worked out at 11000 nM.

Regarding `CC(C)NC(=N)c1c(O)nsc1Nc1ccc(Cc2ccccc2)cc1`, the half-inhibitory concentration (IC50) worked out at 8000 nM.

Take `N=C(NCC1CCCCC1)c1c(O)nsc1Nc1ccc(Nc2ccccc2)cc1`: the midpoint of inhibition, the IC50, lay at 1800 nM.

In turn, `N=C(NCCO)c1c(O)nsc1Nc1ccc(Nc2ccc(Br)cc2)cc1` came in with a half-inhibitory concentration (IC50) of 220 nM.

`CC(CO)NC(=N)c1c(O)nsc1Nc1ccc(Nc2ccc(Br)cc2)cc1` (stereo not given) came in with a 50% inhibitory concentration (IC50) of 140 nM. Compared with the last molecule, the IC50 is about 1.6-fold lower.

Molecule `CC(CO)NC(=N)c1c(O)nsc1Nc1ccc(Nc2ccccc2)cc1` (stereo not given) yielded an IC50 of 460 nM. Compared with the last molecule, the IC50 is about 3.3-fold higher.

With `N=C(NCC1CCCCC1)c1c(O)nsc1Nc1ccc(Nc2ccc(Br)cc2)cc1`, the IC50 turned out to be 300 nM.

`CC(C)NC(=N)c1c(O)nsc1Nc1ccc(Nc2ccc(Br)cc2)cc1` came in with a concentration for half-maximal inhibition (IC50) of 87 nM. This IC50 is about 3.4-fold lower than that of the molecule before.

Molecule `N=C(NCC(O)CO)c1c(O)nsc1Nc1ccc(Nc2ccc(Br)cc2)cc1` (stereo not given) gave a half-maximal inhibitory concentration (IC50) of 470 nM.

In turn, `N=C(NCC1CCCCC1)c1c(O)nsc1Nc1ccc(Cc2ccccc2)cc1` displayed a concentration for half-maximal inhibition (IC50) of 37000 nM.

`N=C(NCCO)c1c(O)nsc1Nc1ccc(Nc2ccccc2)cc1` came in with an IC50 of 1000 nM.

For the molecule `N=C(NCC1CCCCC1)c1c(O)nsc1Nc1ccc(Sc2ccccc2)cc1`, the IC50 was found to be 19000 nM.

Molecule `CCC[C@H]1CC[C@H](c2ccc(Nc3s[nH]c(=O)c3C(N)=NCC(O)CO)cc2)CC1` (stereo not given in full) displayed an IC50 of 17000 nM.

For the molecule `CC(C)NC(=N)c1c(O)nsc1Nc1ccc(S(=O)(=O)c2ccccc2)cc1`, the IC50 was > 40000 nM.

`N=C(NCCCCO)c1c(O)nsc1Nc1ccc(Nc2ccc(Br)cc2)cc1` displayed an IC50 of 310 nM.

In the case of `N=C(NCC1CCCCC1)c1c(O)nsc1Nc1ccc(/N=N/c2ccccc2)cc1`, half-maximal inhibition (IC50) was put at 11000 nM.

Consider `CC(CO)NC(=N)c1c(O)nsc1Nc1ccc(-n2cccn2)cc1` (stereo not given), for which the concentration for half-maximal inhibition (IC50) is > 40000 nM.

In the case of `N=C(NCc1cccc2ccccc12)c1c(O)nsc1Nc1ccc(Nc2ccc(Br)cc2)cc1`, the half-inhibitory concentration (IC50) is 460 nM.

`CC(C)NC(=N)c1c(O)nsc1Nc1ccc(Nc2ccccc2)cc1` yielded an IC50 of 420 nM. This IC50 and that of the molecule before are within 1.5-fold of each other.

On to `N=C(NCC(O)CO)c1c(O)nsc1Nc1ccc(Nc2ccccc2)cc1` (stereo not given), for which 900 nM corresponded to half-maximal inhibition (IC50).

For the molecule `NC(=NCC1CCCCC1)c1c(Nc2ccc(-n3cccn3)cc2)s[nH]c1=O`, the half-maximal inhibitory concentration (IC50) turned out to be 40000 nM.
